Measurements from patent EP2276483B1, “SOLID FORMS COMPRISING (+)-2-[1-(3-ETHOXY-4-METHOXYPHENYL)-2-METHYLSULFONYLETHYL]-4-ACETYLAMINOISOINDOLINE-1,3-DIONE, COMPOSITIONS THEREOF, AND USES THEREOF” (CELGENE CORPORATION, priority 2008, dated 2009).

Key:
[1] = test system: patients with severe plaque-type psoriasis; type: in vivo, human
CD18 = experiment: fMLF-induced CD18 expression on neutrophils; type: cell-based; conditions: Neutrophil; human neutrophils; 30 nM fMLF
Procedure: (§1) CD18/CD11b (Mac-1) expression on neutrophils was measured as previously described (Derian et al., 1995, J. Immunol., 154:308-3 17) with the following modifications. Neutrophils were isolated as described above, then resuspended in complete medium at 1x10^6 cells/ml, pretreated with compounds at 10, 1, 0.1, 0.01, and 0 µM in duplicate at a final DMSO concentration of 0.1% for 10 minutes at 37°C 5%CO2. Cells were then stimulated with 30 nM fMLF for 30 minutes and then chilled to 4°C. Cells were treated with rabbit IgG (Jackson ImmunoResearch Labs, West Grove, PA, USA) (10 µg/1x10^6 cells) to block Fc receptors, stained with CD18-FITC and CD11b-PE (Becton Dickinson), and analyzed by flow cytometry on a FACSCalibur. CD18/CD11b expression (mean fluorescence) in the absence of stimulation was subtracted from all samples to obtain inhibition curves and calculate IC50 values.

[2] = test system: neutrophil adhesion to HUVEC; experiment: fMLF-induced neutrophil adhesion to HUVEC; type: cell-based; conditions: human neutrophils, 500 nM fMLF
Procedure: Human umbilical vein endothelial cells (HUVEC) were used as a substrate for neutrophil adhesion as previously described (Derian et al., 1995, J. Immunol., 154:308-317) with the following modifications. HUVEC cells were obtained from Anthrogenesis (Cedar Knolls, NJ, USA), and neutrophils were not treated with cytochalasin B. Cells were treated with compounds at 10, 1, 0.1, 0.01, 0.001, and 0 µM in a final DMSO concentration of 0.1% in duplicate for 10 minutes, stimulated with 500 nM fMLF for 30 minutes, and washed twice with PBS before measuring fluorescence on an FLX800 plate reader (Bio-Tek Instruments, Winooski, VT, USA). Table 2. Assay results

[3] = test system: subjects with moderate to severe plaque-type psoriasis; experiment: Phase 2 randomized double-blind placebo-controlled study in moderate to severe plaque-type psoriasis; type: in vivo, human
Procedure: This phase 2, multicenter, randomized, double-blind, placebo-controlled, parallel-group, dose-comparison study evaluated the efficacy and safety of Compound A in subjects with moderate to severe plaque-type psoriasis who were candidates for systemic therapy.
This study included a 12-week treatment phase followed by a 4-week observational follow-up phase. A total of 260 subjects were randomized to receive Compound A 20 mg BID, Compound A 20 mg QD, or placebo for 12 weeks. The primary endpoint for this study was the proportion of subjects treated with Compound A who achieved a 75% reduction in Psoriasis Area and Severity Index score ("PASI-75") at week 12/last treatment in reference to the baseline visit. Last treatment is defined as the last PASI assessment completed during the 12-week treatment phase.

CD11b = experiment: fMLF-induced CD11b expression on neutrophils; type: cell-based; conditions: Neutrophil; human neutrophils; 30 nM fMLF
Procedure: as §1

cAMP = experiment: PGE2-induced cAMP elevation in human neutrophils; type: cell-based; conditions: Neutrophil
Procedure: Prostaglandin E2 (PGE2) binds to prostanoid receptors on monocytes, T cells and other leukocytes and consequently elevates intracellular cAMP levels, resulting in inhibition of cellular responses. The combination of PGE2 and a PDE4 inhibitor synergistically elevates cAMP levels in these cell types, and the elevation of cAMP in PBMC caused by PDE4 inhibitors in the presence of PGE2 is proportional to the inhibitory activity of that PDE4 inhibitor. Intracellular cAMP was measured in human PBMC as follows. PBMC were isolated as described above and plated in 96-well plates at 1 x 10^6 cells per well in RPMI-1640. The cells were pre-treated with compounds at 100, 10, 1, 0.1, 0.01, and 0 µM in a final concentration of 2% DMSO in duplicate at 37°C in a humidified incubator at 5% CO2 for one hour. The cells were then stimulated with PGE2 (10µM) (Sigma) for 1h. The cells were lysed with HCl, 0.1 N final concentration to inhibit phosphodiesterase activity and the plates were frozen at -20°C. The cAMP produced was measured using cAMP (low pH) Immunoassay kit (R&D Systems).
Elevation of cAMP in human neutrophils was measured as follows. PBMC were removed from source leukocytes (Sera-Tec Biologicals) by centrifugation on Ficoll-Paque Plus (Amersham Pharmacia). […]

[4] = Nonresponder, 20 mg orally daily, signed change
[5] = 20 mg BID, week 12/last treatment

## CCOc1cc(C(CS(C)(=O)=O)N2C(=O)c3cccc(NC(C)=O)c3C2=O)ccc1OC (single isomer, unassigned; (+)) [Compound A, (+)-2-[1-(3-ethoxy-4-methoxyphenyl)-2-methylsulfonylethyl]-4-acetylaminoisoindoline-1,3-dione]
[1]; 20 mg orally daily for 29 days
  treatment-related adverse event: headache: 26.3%
  treatment-related adverse event: nausea: 15.8%
[1]; 20 mg orally daily for 29 days, Day 29, 8 of the 15 patients with evaluable biopsies
  patients demonstrating a 20% reduction in epidermal skin thickness: 53.3%
[1]; 20 mg orally daily, Day 29, all 15 subjects with evaluable biopsies, p=0.015
  mean reduction of epidermal thickness: 20.5%
[1]; 20 mg p.o. QD for 29 days
  safety in subjects with severe plaque-type psoriasis: safe
[1]; 9 of the 17 evaluable patients, 29 days of treatment
  patients demonstrating improvement in the static Physician's Global Assessment (sPGA): 52.9%
[1]; 10 of the 17 evaluable patients, 29 days of treatment
  patients showing a reduction from baseline in psoriasis body surface area (BSA): 58.8%
[1]; Day 29, 3 patients of 19 enrolled
  patients showing a >50% reduction from baseline in total PASI score: 15.8%
[1]; Day 29, 14 of the 19 subjects enrolled
  subjects demonstrating improvement in their PASI: 73.7%
[1]; Day 29, of enrolled patients
  enrolled patients showing a reduction from baseline in psoriasis body surface area (BSA): 52.6%
  enrolled patients showing an improvement in their sPGA: 47.4%
[1]; [4]
  Percentage Reduction of Key Inflammatory Markers at Day 29: CD11c, Dermis: -21.19%
  Percentage Reduction of Key Inflammatory Markers at Day 29: CD11c, Epidermis: -2.54%
  Percentage Reduction of Key Inflammatory Markers at Day 29: CD83+, Dermis: +0.46%
  Percentage Reduction of Key Inflammatory Markers at Day 29: CD83+, Epidermis: -16.31%
  Percentage Reduction of Key Inflammatory Markers at Day 29: T-cells, Dermis: -17.34%
  Percentage Reduction of Key Inflammatory Markers at Day 29: T-cells, Epidermis: +8.74%
[1]; lesional skin after 29 days of treatment, RT-PCR, p=0.025
  reduction of mRNA expression of iNOS: 66.5%
CD18
  IC50: 390 nM
[2]
  IC50: 150 nM
[3]; 20 mg BID or 20 mg QD for 12 weeks
  study drug-related serious adverse events: No study drug-related serious adverse events
[3]; [5]
  mean decrease in PASI from baseline: 52%
  proportion of subjects who achieved PASI-50: 57%
  proportion of subjects who achieved PASI-90: 14%
[3]; 20 mg BID, week 12/last treatment, P=0.023 vs placebo
  proportion of subjects who achieved a PASI-75: 24%
[3]; 12 weeks of treatment
  tolerability and safety: well tolerated and safe
CD11b
  IC50: 74 nM
cAMP
  EC50: 4.57 µM
